Measured values reported in patent publication US20080299590A1, “SHC protein-related methods and compositions” (Roger Williams Hospital, priority 2005, published 2008).

Tested on: breast cancer patients
Assay: Shc Test TMA study: protection by adjuvant tamoxifen or chemotherapy by Shc risk group (multivariate survival models)
Assay type: in vivo, human
Text: Materials and Methods: Patient samples included primary invasive tumor specimens from 4,326 British Columbian women in Tumor Micro-Array (TMA) format (no adjuvant therapy=1860; tamoxifen=1366; chemotherapy (AC, CMF, FAC, CEF)=744; relapsed=1752; died of disease=1334, average follow-up 13 yrs). Two additional sources were 65 primary tumor specimens from tamoxifen-only-treated patients (10 recurrences, 6.4 yrs average follow-up) from Roger Williams Medical Center (RWMC), and 32 (14 recurrences) from a published study (Massachusetts General Hospital (MGH)) (Ma et al., Cancer Cell, 5:1-10 (2004)). Immunohistochemistry (IHC) staining of the Shc proteins was scored on a continuous 0-5 scale by two pathologists, blinded to patient clinical data.
Analysis of relapse-free survival (RFS) and disease specific survival (DSS) used multivariate models under assumptions of both log-normality as well as proportionality of hazard rate.

For `CC/C(=C(\c1ccccc1)c1ccc(OCCN(C)C)cc1)c1ccccc1` [tamoxifen], the “hazard ratio (HR) of tamoxifen therapy” value (12% of patients classified as high risk by the Shc Test, node positive patients) was 0.26 and the benefit from tamoxifen (63% patients in the low risk group by the Shc Test) was “little benefit”.
